What was measured:
[1] = test system: cerebral infarct lesion; conditions: intravenous 6 pg/day-60 pg/day, rats weighing 300 g; PCT/JP00/04102; cited from earlier work
[2] = Observation of administered animals for side effects; assay type: in vivo, rats; conditions: present experiments, animals carefully observed
Description: The amount of administration of ginsenoside Rb1, which is used as the preparation(s) for external or topical application to skin or the preparation(s) for external or topical application to mucosa, is far smaller than the amount of intravenous administration.
Actually, as indicated in PCT/JP00/04102 (Brain cell or nerve cell protecting agents comprising ginseng), as far as directing treatment or therapy of cerebral infarction by continuous intravenous administration in a dose of […] (weighing 300 g), dihydroginsenoside Rb1 is thought to be a quite safe pharmaceutical composition. The amount of administration of ginsenoside Rb1, which is used as the preparation(s) for external or topical application to skin or the preparation(s) for external or topical application to mucosa, is far smaller than the amount of intravenous administration.

[3] = test system: cultured nerve cells (neurons); test: SNP-induced apoptosis of cultured nerve cells, MAP2 immunoblotting; assay type: cell-based, rats
Description: We (Sakanaka and Tanaka) had reported that when cultured nerve cells were exposed for a short time to sodium nitroprusside, apoptosis or apoptosis-like cell death of neurons is induced (Toku, K. et al., J. Neurosci. Res., 53, 415-425, 1998). […] We have examined the neuroprotective action of dihydroginsenoside Rb1 using the same experimental system.
Nerve cells were isolated from the cerebral cortices of fetal rats at gestation day 17 by using trypsin EDTA and seeded onto 24 well plate coated with poly-L-lysine. After incubating the cells in Dulbecco's modified Eagle's medium (DMEM) containing 10% fetal calf serum for 16 hours, the culture medium was replaced with a serum-free medium for neuronal culture containing insulin, transferrin, etc. and the neurons were cultured for 3 or 4 days. On day 3 or 4 of culture, sodium nitroprusside (SNP) at the concentration of 300 μM was added to the neuronal culture and incubated for 10 minutes. […] In order to quantify the survival rate of nerve cells or neurons, immunostained MAP2 band was analyzed with densitometry. […]
Nerve cells were isolated from cerebral cortices of fetal rats on gestation day 17 by using trypsin EDTA and seeded onto a 24 well plate(s) coated with poly-L-lysine. […] In order to quantify survival rate of nerve cells, immunostained MAP2 band was analyzed with densitometry.

[4] = test system: open wound of rat skin; test: Open wound healing by external or topical application to skin (propet ointment); assay type: in vivo, rats; conditions: for action to promote wound healing: sprayed or spread on the local open wound of rats' skin, inventors' experiences
Description: For that purpose, for example, by using Wistar male rats (body weight about 300 g), the punch biopsies with diameter 6 mm were made in the dorsal region of animals after shaving under inhalation anesthesia to prepare 3 regions of open wound. Among them, 0.1 g of ophthalmic white Vaseline (Propet) containing 0.01% by weight or 0.001% by weight of ginsenoside Rb1 was spread once for every day in two regions, and in the remaining open wound, the equal amount of ophthalmic white Vaseline (propet) was spread. Nine days after preparing open wound, the skin including wound regions was photographed. Further, we have examined the effects of external or topical cutaneous spread of 0.0001% by weight, 0.00001% by weight or 0.000001% by weight of ginsenoside Rb1 by the same procedure. Experimental animals were euthanized by anesthetia immediately before photographing, then wound regions were dissected out after photographing or after dissecting out wound regions, photographing was performed. Thereafter, the wound region tissues were stored in the fixative. FIG. 5 and FIG. 6 are photographs in place of drawings.
The punch biopsy with diameter 6 mm was performed in the dorsal 6 regions of each animal under inhalation anesthesia to prepare open wound. Thereafter, 0.1 g of propet (ophthalmic white vaseline) containing ginsenoside Rb1 at the concentrations of 0.0001% by weight (10^−4% by weight), 0.00001% by weight (10^−5% by weight), 0.000001% by weight (10^−6% by weight), 0.0000001% by weight (10^−7% by weight) and 0.00000001% by weight (10^−8% by weight), respectively, was applied externally, once a day, for 9 days on each open wound. The equal amount of propet alone was applied externally or topically in the control animals. Then, immediately after euthanasia by anesthetization, the skin containing the open wound was dissected out and photographed. The collected skin tissue was preserved in a fixative. FIG. 12 is a photograph in place of drawing.
In each case, there are three wounds on the left side and three wounds on the right side, totally 6 marks of open wounds.
In the experimental cases hereinbefore explained, an area of open wound (flair region) applied externally only with propet is set as a denominator and an area of open wound administered externally with ginsenoside Rb1 at concentrations from 10^−4% by weight to 10^−8% by weight is set as a numerator, and ratio thereof is calculated. In FIG. 13, n=3 and single asterisk (*) indicates significant difference, P<0.05, and two asterisks (**) indicate significant difference, P<0.01. Statistical test was performed according to Scheffe's post hoc test.
Details of dihydroginsenoside Rb1 is described in the specification of PCT/JP00/04102 (Brain cell or nerve cell protecting agents comprising ginseng). The punch biopsy with diameter 6 mm was performed at 5 places in the dorsal region of rats (n=4) under inhalation anesthesia to prepare open wound. Thereafter, 0.1 g of propet containing dihydroginsenoside Rb1 at concentrations of 0.0001% by weight (10^−4% by weight), 0.00001% by weight (10^−5% by weight), 0.000001% by weight (10^−6% by weight) and 0.0000001% by weight (10^−7% by weight), respectively, was applied topically or externally, once a day, for 9 days onto each open wound. The equal amount of propet alone was applied externally or topically in the control animals. Then, immediately after euthanasia by anesthetization, the skin containing the open wound was dissected out and photographed. The collected skin tissue was preserved in a fixative. FIG. 14 is a photograph in place of drawing. In FIG. 14, four cases are shown, and from the upper column, the first case, the second case, the third case and the fourth case are shown.

## CC(C)CCC[C@](C)(O[C@@H]1O[C@H](CO[C@@H]2O[C@H](CO)[C@@H](O)[C@H](O)[C@H]2O)[C@@H](O)[C@H](O)[C@H]1O)[C@H]1CC[C@]2(C)[C@@H]1[C@H](O)C[C@@H]1[C@@]3(C)CC[C@H](O[C@@H]4O[C@H](CO)[C@@H](O)[C@H](O)[C@H]4O[C@@H]4O[C@H](CO)[C@@H](O)[C@H](O)[C@H]4O)C(C)(C)[C@@H]3CC[C@]12C [dihydroginsenoside Rb1]
[1]
  therapeutic effect on brain infarction: excellent therapeutic effect on brain infarction
[2]
  side effect in administered animals: no side effect was noted
[3]; 0.01 fg/ml (lane 3) to 1 ng/ml (lane 7), SNP 300 μM 10 minutes, 16 hours after SNP
  apoptosis or apoptosis-like cell death of neurons caused by SNP, MAP2 band (FIG. 16): obviously inhibited
[3]; 0.01 fg/ml to 1 ng/ml, n=5, P<0.001 / P<0.0001
  apoptosis or apoptosis-like cell death of nerve cells, MAP2 densitometry (FIG. 17): significantly inhibited
[4]; 0.00001% by weight (10^−5% by weight) or less, n=4, Fisher's PLSD P<0.05
  ratio of open wound area to propet alone (FIG. 15): facilitated significantly wound healing
[4]; 0.0001% by weight (10^−4% by weight)
  therapeutic effect on open wound in rats: trivial
[4]; dihydroginsenoside Rb1 at 10^−5%, 10^−6% or 10^−7% by weight
  area of open wound region relative to control: ½-¼
[4]; low concentrations of dihydroginsenoside Rb1
  hair growth in wound healing region (FIG. 14): obvious hair growth was observed
[4]; propet containing 10^−5% to 10^−7% by weight (100 ng/g to 1 ng/g), once a day for 9 days, n=4
  wound healing vs propet alone (FIG. 14): wound healing was obviously promoted

## EGF: epidermal growth factor
[4]
  action to promote wound healing: inferior to the effects of continuous intravenous administration of ginsenoside Rb1

## PDGF
[4]
  action to promote wound healing: inferior to the effects of continuous intravenous administration of ginsenoside Rb1

## bFGF: basic fibroblast growth factor
[4]
  action to promote wound healing: inferior to the effects of continuous intravenous administration of ginsenoside Rb1
